“And” between values parts separate entries of the source, which are not always exact repeats. Identical values can stand only once. “Also recorded” adds a separate entry of the source. Like-named read-outs stand apart in the source and are kept apart here.
Columns and labels:
[1] = target: T1, full-length p75^NTR in COS cells (Rattus norvegicus, UniProt P07174); assay: Live cell homo-FRET anisotropy, wild-type p75NTR; format: cell-based; design: key to average anisotropy change, wt: fold change vs mean of 6 pre-treatment time points (baseline ≈ 100); conditions: for average anisotropy change, wt: 10 μM
T1 construct: COS cells expressing full length, GFP-tagged rat p75^NTR; expressed in transfected cells; host or cells: COS-7
T1 sequence (P07174 30-425): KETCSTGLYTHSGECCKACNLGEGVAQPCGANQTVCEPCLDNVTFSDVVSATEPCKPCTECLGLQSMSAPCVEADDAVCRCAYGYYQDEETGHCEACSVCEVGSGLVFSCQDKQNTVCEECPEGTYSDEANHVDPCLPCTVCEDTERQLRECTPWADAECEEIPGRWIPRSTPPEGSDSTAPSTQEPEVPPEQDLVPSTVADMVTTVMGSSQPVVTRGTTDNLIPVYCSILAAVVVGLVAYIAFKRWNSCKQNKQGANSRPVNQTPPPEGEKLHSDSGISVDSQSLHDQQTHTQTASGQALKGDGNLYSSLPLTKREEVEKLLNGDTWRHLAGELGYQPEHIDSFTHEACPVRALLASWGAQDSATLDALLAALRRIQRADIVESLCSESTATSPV
Excerpt: Previous real-time homo-FRET anisotropy studies by ours as well as other laboratories have shown that the intracellular death domains of p75^NTR are associated with each other (high FRET, low anisotropy state) under basal conditions (Vilar et al, [2009]; Sykes et al, [2012]), but neurotrophin binding induces transient separation of p75^NTR death domains (low FRET, high anisotropy state) manifested as oscillations in real-time anisotropy measurements (Lin et al, [2015]; Tanaka et al, [2016]; Goh et al, [2018]). COS cells expressing full length, GFP-tagged rat p75^NTR were treated with vehicle or Div17E5 and changes in anisotropy levels were recorded over time.
Anisotropy imaging in COS-7 cells that were transfected with a rat p75^NTR-EGFP* fusion construct was done as previously described (Goh, Lin et al, [2018]). EGFP* carries a […] mutation rendering monomeric EGFP. Changes in anisotropy were expressed as fold change at each time point (every 30 s) in comparison to the mean of 6 time points obtained prior to addition of treatment. Images were acquired using Nikon Ti-E based live cell epi-fluorescence microscope and MetaMorph software and analyzed using MatLab from Mathworks.

[2] = format: in vivo; conditions: oral gavage 200 mg/kg daily (5 days on, 2 days off), 3 weeks; female SCID
[3] = Plasma pharmacokinetics in mice; format: in vivo, C57BL/6 mice; conditions: for Cmax: read-out: C0/Cmax; for Vd: read-out: Vss
WM115 cells = assay: Boyden chamber chemotaxis assay, WM115; format: cell-based, human; conditions: for values normalized to vehicle, mean (Figure 6E): mean of EXP1-3; for values normalized to vehicle (Figure 6E): single experiments EXP1-3
Procedure: For Boyden chamber assay, Corning® BioCoat™ Matrigel® Invasion Chambers 8.0 µm PET Membrane were used (cat. no. 354480). A875 NT or WM115 cells were serum-starved for 16 h and then seeded at 60,000 cells per well in serum-free media under different conditions, including DMSO (vehicle) or small molecules Div17E5 or Np75-4A22 at different concentrations to the top chamber of the Matrigel-coated trans-well chamber. The pan-caspase inhibitor Q_VD_poH (at 5 µM) was also introduced in the top chamber in some experiments. Two different chemoattractants, NGF (at 50 ng/ml or 100 ng/ml as indicated) or 10% FBS were added to the bottom chamber. Assays were carried out for 8 h after which filters were fixed in 4% PFA and stained with DAPI. Cells that had remained on the top of the filter were gently scrapped away with a cotton tip. The filter lower side was imaged on an inverted fluorescence microscope and counted using ImageJ software (NIH).

[4] = C57BL/6, mouse, IV 3 mg/kg, female, plasma
[5] = C57BL/6, mouse, IV 3 mg/kg, male, plasma
[6] = C57BL/6, mouse, PO 10 mg/kg, female, plasma
[7] = C57BL/6, mouse, PO 10 mg/kg, male, plasma

SMILES: Oc1ccc(-c2cncc(Nc3ccc(Br)c(Cl)c3)n2)cc1 [Div17E5]
- real-time homo-FRET anisotropy ([1]; 10 µM): induced oscillations in real-time anisotropy
- average anisotropy change, wt ([1]; 0 min after compound addition): 106
- average anisotropy change, wt ([1]; 0.5 min after compound addition): 88
- average anisotropy change, wt ([1]; 1 min after compound addition): 110
- average anisotropy change, wt ([1]; 1.5 min after compound addition): 101
- average anisotropy change, wt ([1]; 2 min after compound addition): 115
- average anisotropy change, wt ([1]; 2.5 min after compound addition): 82
- average anisotropy change, wt ([1]; 3 min after compound addition): 112
- average anisotropy change, wt ([1]; 3.5 min after compound addition): 105
- average anisotropy change, wt ([1]; 4 min after compound addition): 80
- average anisotropy change, wt ([1]; 4.5 min after compound addition): 111
- average anisotropy change, wt ([1]; 5 min after compound addition): 83
- average anisotropy change, wt ([1]; 5.5 min after compound addition): 99
- average anisotropy change, wt ([1]; 6 min after compound addition): 121
- average anisotropy change, wt ([1]; 6.5 min after compound addition): 122
- average anisotropy change, wt ([1]; 7 min after compound addition): 100
- average anisotropy change, wt ([1]; 7.5 min after compound addition): 100
- average anisotropy change, wt ([1]; 8 min after compound addition): 74
- average anisotropy change, wt ([1]; 8.5 min after compound addition): 96
- average anisotropy change, wt ([1]; 9 min after compound addition): 96
- average anisotropy change, wt ([1]; 9.5 min after compound addition): 103
- average anisotropy change, wt ([1]; 10 min after compound addition): 99
- average anisotropy change, wt ([1]; 10.5 min after compound addition): 110
- average anisotropy change, wt ([1]; 11 min after compound addition): 95
- average anisotropy change, wt ([1]; 11.5 min after compound addition): 89
- average anisotropy change, wt ([1]; 12 min after compound addition): 110
- average anisotropy change, wt ([1]; 12.5 min after compound addition): 95
- average anisotropy change, wt ([1]; 13 min after compound addition): 108
- average anisotropy change, wt ([1]; 13.5 min after compound addition): 110
- average anisotropy change, wt ([1]; 14 min after compound addition): 100
- average anisotropy change, wt ([1]; 14.5 min after compound addition): 105
- average anisotropy change, wt ([1]; 15 min after compound addition): 94
- average anisotropy change, wt ([1]; -0.5 min after compound addition): 104
- average anisotropy change, wt ([1]; -1 min after compound addition): 103
- average anisotropy change, wt ([1]; -1.5 min after compound addition): 97
- average anisotropy change, wt ([1]; -2 min after compound addition): 101
- average anisotropy change, wt ([1]; -2.5 min after compound addition): 97
- average anisotropy change, wt ([1]; -3 min after compound addition): 98

SMILES: Cc1cccc(-c2cncc(Nc3ccc(Br)c(Cl)c3Cl)n2)c1C [Np75-4A22]
- mortality, clinical signs and gross histological pathology [2]: No mortality or adverse clinical signs
- AUC(0-t) [3, 4]: 1670 ng·h/mL
- Cmax ([3]; C57BL/6, mouse, IV 3 mg/kg, female, plasma, back extrapolated): 3400 ng/mL
- clearance ([3]; C57BL/6, mouse, IV 3 mg/kg, female, plasma, read-out: CL): 29.5 mL/min/kg
- half-life ([3]; C57BL/6, mouse, IV 3 mg/kg, female, plasma, read-out: T1/2 (converted)): 8.64 h
- Vd [3, 4]: 3.23 L/kg
- AUC(0-t) [3, 5]: 2070 ng·h/mL
- Cmax ([3]; C57BL/6, mouse, IV 3 mg/kg, male, plasma, back extrapolated): 4710 ng/mL
- clearance ([3]; C57BL/6, mouse, IV 3 mg/kg, male, plasma, read-out: CL): 23.9 mL/min/kg
- half-life ([3]; C57BL/6, mouse, IV 3 mg/kg, male, plasma, read-out: T1/2 (converted)): 7.45 h
- Vd [3, 5]: 2.09 L/kg
- AUC(0-t) [3, 6]: 2680 ng·h/mL
- Tmax [3, 6]: 0.5 h
- bioavailability [3, 6]: 48%
- Cmax [3, 6]: 1030 ng/mL
- AUC(0-t) [3, 7]: 4730 ng·h/mL
- Tmax [3, 7]: 0.5 h
- bioavailability [3, 7]: 69%
- Cmax [3, 7]: 1310 ng/mL
- clearance ([3]; i.v. 3 mg/kg, male and female): low clearance
- half-life ([3]; i.v. 3 mg/kg, male and female): long half-life
- absorption ([3]; oral 10 mg/kg, male and female): rapid absorption
- oral bioavailability ([3]; oral 10 mg/kg, male and female, 10 mg/kg): good oral bioavailability; also recorded: high oral bioavailability
- values normalized to vehicle, mean (Figure 6E) (WM115 cells; 100 ng/ml NGF & 1 uM 4A22): 1.0063
- values normalized to vehicle (Figure 6E) (WM115 cells; 100 ng/ml NGF & 1 uM 4A22): 0.9175 and 0.9379 and 1.163
- spontaneous migration of WM115 cells (WM115 cells; 1μM): without affecting the spontaneous migration
- values normalized to vehicle, mean (Figure 6E) (WM115 cells; 1 uM 4A22): 0.8431
- values normalized to vehicle (Figure 6E) (WM115 cells; 1 uM 4A22): 0.9343 and 0.8878 and 0.7073
- NGF-induced migration of WM115 cells (WM115 cells; 1 μM, NGF 100 ng/ml): blocked this activity
